Data: patent EP0186452A2, “Organosilicon compounds process for their production and pharmaceutical compositions thereof” (SANWA KAGAKU KENKYUSHO CO., LTD., priority 1984, dated 1986)

Legend:
B-16 melanoma = experiment: Anti-tumor action to B-16 melanoma transplanted under skin of mice; format: in vivo, BDF1 female mice; conditions: Mus musculus, B16, 504 h, 5th and 9th day, tumor weight at 21st day, read-out: Inhibition Ratio (%); for inhibition in vivo at 125 mg/kg: 125 mg/kg/day x 3, oral at 1st; for inhibition in vivo at 250 mg/kg: 250 mg/kg/day x 3, oral at 1st; for inhibition in vivo at 500 mg/kg: 500 mg/kg/day x 3, oral at 1st
Excerpt: A cancer cell of B-16 melanoma (1 x 10^5 cells) was transplanted under skin of BDF1 female mice (age of about 5 weeks), and each of testing compounds was orally dosed at lst, 5th and 9th day after the transplantation. At 21st day after the transplantation, the mice were killed to measure a weight of the formed cancerous tumor and to finally determine an inhibition ratio due to the dosage of the test compound.

colon-38 carcinoma = experiment: Anti-tumor action to colon-38 carcinoma transplanted under skin of mice; format: in vivo, BDF1 female mice; conditions: 5th and 9th day, tumor weight at 28th day vs non-treated control; for inhibition in vivo at 338 mg/kg: 338 mg/kg/day x 3, oral at 1st; for inhibition in vivo at 323 mg/kg: 323 mg/kg/day x 3, oral at 1st
Procedure: 0.02 ml of 10(W/V) cell suspension prepared from a solid cancer cell (colon-38 carcinoma) was transplanted under skin of BDF1 female mice (20 - 21g, age of about 5 weeks), and each test compound was orally dosed at lst, 5th and 9th day after the transplantation. major and minor axes of the forming cancerous tumor were measured at llth, 14th, 18th, 21st, 25th and 28th day after the transplantation to calcuate the volume ofthe cancerous tumor in accordance with the equation: [formula] • wherein L: major axis (mm) • W: minor axis (mm)
At 28th day from the transplantation, the mice were killed and each of the cancerous tumors was enucleated to measure its weight and to determine an inhibition ratio in comparison with that in a non-treated control group.

[1] = Acute toxicity, oral dosage to mice, LD50; conditions: mouse, in vivo, single dose suspended in 0.1% P-1570, ICR female mice, observed 21 days
Excerpt: Each test compound suspended in 0.1% P-1570 was orally and forcedly dosed through a gastric probe to ICR female mice (21 - 22g, age of about 5 weeks). An identification number was given to each mouse, and weighing and observation on general behaviour were done just before the dosage and each day after the same. Each dead mouse was subjected without delay to an autopsy to check the same, more particularly in detail on enterona. All living mice were killed at the 21st day from the dosage to carry out an autopsy for checking the same, more particularly on the entrails.
An LD50 was calculated in accordance with Leed.and Munch's method.

[2] = Mus musculus, 672 h, read-out: Inhibition Ratio (%)

## CC(C)[Si](C)(C)CCSCCCNC(=O)n1cc(F)c(=O)[nH]c1=O [compound 5, 1-[3-[[2-(Dimethylisopropylsilyl)ethyl]thio]-propylcarbamoyl]-5-fluorouracil]
B-16 melanoma
  inhibition in vivo at 125 mg/kg: 17.6%
  inhibition in vivo at 250 mg/kg: 19.4%
colon-38 carcinoma; [2]
  inhibition in vivo at 338 mg/kg: 98.4%
[1]
  LD50 at 504 h: 2250 mg/kg

## C[Si](C)(CCCSCCCNC(=O)n1cc(F)c(=O)[nH]c1=O)c1ccccc1 [compound 11, 1-{3-{[3-(Dimethylphenylsilyl)propyl]thio}-propylcarbamoyl}-5-fluorouracil]
B-16 melanoma
  inhibition in vivo at 125 mg/kg: 82.2%
  inhibition in vivo at 250 mg/kg: 70.5%
colon-38 carcinoma; Mus musculus, 672 h, 339 mg/kg/day x 3, oral at 1st, read-out: Inhibition Ratio (%)
  inhibition in vivo at 339 mg/kg: 97.9%
[1]
  LD50 at 504 h: 1800 mg/kg

## CCCC[Si](C)(C)CCSCCNC(=O)n1cc(F)c(=O)[nH]c1=O [compound 3, 1-[2-[[2-(Dimethyl-n-butylsilyl)ethyl]thio]-ethylcarbamoyl]-5-fluorouracil]
colon-38 carcinoma; Mus musculus, 672 h, 300 mg/kg/day x 3, oral at 1st, read-out: Inhibition Ratio (%)
  inhibition in vivo at 300 mg/kg: 81.2%
[1]
  LD50 at 504 h: 1380 mg/kg

## CC(C)(C)[Si](C)(C)CCCSCCNC(=O)n1cc(F)c(=O)[nH]c1=O [compound 7, 1-{2-{[3-(Dimethyl-t-butylsilyl]propyl)thio}-ethylcarbamoyl}-5-fluorouracil]
B-16 melanoma
  inhibition in vivo at 250 mg/kg: 43.1%
colon-38 carcinoma; Mus musculus, 672 h, 311 mg/kg/day x 3, oral at 1st, read-out: Inhibition Ratio (%)
  inhibition in vivo at 311 mg/kg: 81%
[1]
  LD50 at 504 h: 1380 mg/kg

## CC(C)[Si](C)(C)CCCSCCCN [Example 8, 3-[[3-(Isopropyldimethylsilyl)propyl]thio]propylamine]
B-16 melanoma
  inhibition in vivo at 250 mg/kg: 61.1%
  inhibition in vivo at 500 mg/kg: 46.3%
[1]
  LD50 at 504 h: > 1500 mg/kg

## CC(C)[Si](C)(C)CCCSCCN [Example 6, Z-[[3-(Isopropyldimethylsilyl)propyl]thio]ethylamine]
[1]
  LD50 at 504 h: 1500 mg/kg

## CC(C)[Si](C)(C)CCSCCNC(=O)n1cc(F)c(=O)[nH]c1=O [Reference Example 2, 1-[2-[[2-(Dimethylisopropylsilyl)ethyl]thio]-ethylcarbamoyl]-5-fluorouracil]
B-16 melanoma; 300 mg/kg/day x 3, oral at 1st
  inhibition in vivo at 300 mg/kg: 79.7%
colon-38 carcinoma; Mus musculus, 672 h, 289 mg/kg/day x 3, oral at 1st, read-out: Inhibition Ratio (%)
  inhibition in vivo at 289 mg/kg: 89.8%
[1]
  LD50 at 504 h: 1380 mg/kg

## CC(C)[Si](C)(C)CCSCCCN [Example 5, 3-[[2-(Isopropyldimethylsilyl)ethyl]thio]propylamine]
B-16 melanoma
  inhibition in vivo at 250 mg/kg: 21.4%
  inhibition in vivo at 500 mg/kg: 50.6%
[1]
  LD50 at 504 h: 750 mg/kg

## CC(C)[Si](C)(C)CCCSCCCNC(=O)n1cc(F)c(=O)[nH]c1=O [compound 8, 1-{3-{[3-(Dimethylisopropylsilyl)propyl]thio}-propylcarbamoyl}-5-fluorouracil]
B-16 melanoma
  inhibition in vivo at 125 mg/kg: 32.8%
  inhibition in vivo at 250 mg/kg: 45.7%
colon-38 carcinoma; Mus musculus, 672 h, 350 mg/kg/day x 3, oral at 1st, read-out: Inhibition Ratio (%)
  inhibition in vivo at 350 mg/kg: 90.3%
[1]
  LD50 at 504 h: 2120 mg/kg

## CCCC[Si](C)(C)CCCSCCCN [Example 10, 3-[[3-(n-Butyldimethylsilyl)propyl)thio)propylamine]
B-16 melanoma
  inhibition in vivo at 250 mg/kg: 50.4%
  inhibition in vivo at 500 mg/kg: 29.8%
[1]
  LD50 at 504 h: > 1500 mg/kg

## C[Si](CCSCCN)(c1ccccc1)c1ccccc1 [Example 4, 2-[[2-(Methyldiphenylsilyl)ethyl]thio)ethylamine]
[1]
  LD50 at 504 h: > 1500 mg/kg

## C[Si](C)(CCCSCCCN)c1ccccc1 [Example 11, 3[[3-(Dimethylphenylsilyl)propyl]thio]propylamine]
B-16 melanoma
  inhibition in vivo at 250 mg/kg: 38.7%
  inhibition in vivo at 500 mg/kg: 45.4%
[1]
  LD50 at 504 h: > 1500 mg/kg

## CCCCCCCC[Si](C)(C)CCSCCNC(=O)n1cc(F)c(=O)[nH]c1=O [Reference Example 1, 1-[2-[[2-dimethyl-n-octylsilylethyl)thio]ethylcarbamoyl]-5-fluorouracil]
colon-38 carcinoma; Mus musculus, 672 h, 345 mg/kg/day x 3, oral at 1st, read-out: Inhibition Ratio (%)
  inhibition in vivo at 345 mg/kg: 80%
[1]
  LD50 at 504 h: 1580 mg/kg

## CCCC[Si](C)(C)CCSCCN [Example 3, 2-[[2-(n-Butyldimethylsilyl)ethyl]thio]ethylamine]
[1]
  LD50 at 504 h: > 1500 mg/kg

## CC(C)[Si](C)(C)CCCSCCNC(=O)n1cc(F)c(=O)[nH]c1=O [compound 6, 1-[2-[[3-(Dimethylisopropylsilyl)propyl]thio]-ethylcarbamoyl]-5-fluorouracil]
colon-38 carcinoma; [2]
  inhibition in vivo at 338 mg/kg: 95.9%
[1]
  LD50 at 504 h: 1820 mg/kg

## CCCC[Si](C)(C)CCCSCCCNC(=O)n1cc(F)c(=O)[nH]c1=O [compound 10, 1-{3-{[3-(n-Butyldimethylsilyl)propyl]thio}-propylcarbamoyl}-5-fluorouracil]
B-16 melanoma
  inhibition in vivo at 125 mg/kg: 69.5%
  inhibition in vivo at 250 mg/kg: 88.5%
colon-38 carcinoma; [2]
  inhibition in vivo at 323 mg/kg: 92.3%
[1]
  LD50 at 504 h: 1850 mg/kg

## C[Si](CCSCCNC(=O)n1cc(F)c(=O)[nH]c1=O)(c1ccccc1)c1ccccc1 [compound 4, 1-[2-[[2-(Diphenylmethylsilyl)ethyl]thio]-ethylcarbamoyl]-5-fluorouracil]
colon-38 carcinoma; 366 mg/kg/day x 3, oral at 1st
  Inhibition Ratio (%): 32.2%
[1]
  LD50 at 504 h: 1400 mg/kg

## CCCCCCCC[Si](C)(C)CCSCCN [Example 1, 2-[[2-(Dimethyl-n-octylsilyl)ethyl]thio]ethylamine]
[1]
  LD50 at 504 h: > 1500 mg/kg

## CC(C)(C)[Si](C)(C)CCCSCCN [Example 7, 2[[3-(t-Butyldimethylsilyl)propyl]thio]ethylamine]
B-16 melanoma
  inhibition in vivo at 250 mg/kg: 50%
  inhibition in vivo at 500 mg/kg: 32.7%
[1]
  LD50 at 504 h: > 1500 mg/kg

## CC(C)(C)[Si](C)(C)CCCSCCCN [Example 9, 3-[[3-(t-Butyldimethylsilyl)propyl]thio)propylamine]
B-16 melanoma
  inhibition in vivo at 250 mg/kg: 57.3%
  inhibition in vivo at 500 mg/kg: 51.9%
[1]
  LD50 at 504 h: > 1500 mg/kg

## CC(C)(C)[Si](C)(C)CCCSCCCNC(=O)n1cc(F)c(=O)[nH]c1=O [compound 9, 1-{3-{[3-(t-Butyldimethylsilyl)propyl]thio}-propylcarbamoyl}-5-fluorouracil]
B-16 melanoma
  inhibition in vivo at 125 mg/kg: 55.2%
  inhibition in vivo at 250 mg/kg: 46.3%
colon-38 carcinoma; [2]
  inhibition in vivo at 323 mg/kg: 90.1%
[1]
  LD50 at 504 h: 1800 mg/kg

## CC(C)[Si](C)(C)CCSCCN [Example 2, Z-([2-(Isopropyldimethylsilyl)ethyl]thio]ethylamine]
B-16 melanoma
  inhibition in vivo at 250 mg/kg: 23.8%
  inhibition in vivo at 500 mg/kg: 36.1%
[1]
  LD50 at 504 h: 1620 mg/kg
